Values after ≈ are worked out from the molar mass of the structure shown. Read-outs that look alike come from different tables or passages of the source. Bounds are passed on as bounds.

The test system of one test is WI38. Description: cells. Format: cell-based. Conditions: Homo sapiens, read-out: IC50, WI38.
The test system of a further test is MRSA-1. Put plainly: Antimicrobial serial microdilution, MRSA-1. Format: cell-based, Staphylococcus aureus. (Dilution methods test growth across graded concentrations, often in twofold steps.)
For test [1], the system named is Bacillus cereus ATCC 10702 (Bc). Put plainly: Antimicrobial serial microdilution, Bc. Format: cell-based.
Test [2] relates to Enterococcus faecalis ATCC 29212 (Ef). Put plainly: Antimicrobial serial microdilution, Ef. Format: cell-based.
For a further test, the system named is A549. Put plainly: cells. Conditions: Homo sapiens, A549, 48 h, read-out: IC50, A549.
The next test has as its system PC3. Put plainly: cells. Format: cell-based. Conditions: Homo sapiens, read-out: IC50, PC3.
For the next test, the system named is MRSA-2. Put plainly: Antimicrobial serial microdilution, MRSA-2. Format: cell-based, Staphylococcus aureus.
Another test has as its system M-HeLa. Description: cells. Conditions: Homo sapiens, 48 h, read-out: IC50, M-HeLa.
Another test concerns MCF-7. Put plainly: cells. Format: cell-based, human. Conditions: Homo sapiens, read-out: IC50, MCF-7.
The subject of another test is HuTu 80. Put plainly: cells. Conditions: Homo sapiens, HuTu80, 48 h, read-out: IC50, HuTu 80.
A further test has as its system T98G. Description: cells. Conditions: Homo sapiens, 48 h, read-out: IC50, T98G. Format: cell-based.
For a further test, the system named is Chang Liver. Put plainly: cells. Conditions: Homo sapiens, 48 h, read-out: IC50, Chang Liver.
Another test deals with PANC-1. Description: cells. Conditions: Homo sapiens, PANC-1, 48 h, read-out: IC50, PANC-1.
For test [3], the system named is Staphylococcus aureus ATCC 6538P FDA 209P (Sa). Description: Antimicrobial serial microdilution, Sa. Format: cell-based.
The subject of a further test is A375. Description: cells. Format: cell-based. Conditions: Homo sapiens, read-out: IC50, A375.
Setting [4] is: serial microdilution, strain resistant to β-lactams and fluoroquinolones.
The mark [5] stands for this setting: serial microdilution, Mueller-Hinton broth.
The mark [6] stands for this setting: serial microdilution, strain resistant only to β-lactams.
Setting [7] is: WI-38, normal cell line, 48 h incubation, MTT.
[8] abbreviates: A-375, cancer cell line, 48 h incubation, MTT.

One may read the IC50 as the concentration that inhibits the measured activity by half. In the case of `COP(=O)(OC)C(c1cc(C(C)(C)C)c(O)c(C(C)(C)C)c1)c1ccc(Nc2c([N+](=O)[O-])cc([N+](=O)[O-])c3no[n+]([O-])c23)nc1N` (stereo not drawn) [4a, 7-((6-amino-5-((3,5-di-tert-butyl-4-hydroxyphenyl)(dimethoxyphosphoryl)methyl)pyridin-2-yl)amino)-4,6-dinitrobenzo[c][1,2,5]oxadiazole 1-oxide], the IC50 in the test with WI38 (WI-38, 48 h) is 7.2 ± 0.6 µM; in the test with A549, 13.5 ± 1.2 µM; in the test with PC3 (PC-3, 48 h) it was 14 ± 1.2 µM; in the test on M-HeLa it was 4.2 ± 0.3 µM; in the test on MCF-7 (MCF7, 48 h), 7.6 ± 0.6 µM; in the test with HuTu 80, 5.2 ± 0.4 µM. In addition, the IC50 came to 12.4 ± 1.2 µM with T98G; 12 ± 1.2 µM with Chang Liver; 20 ± 1.7 µM in the test on PANC-1; 13.5 ± 1.2 µM with A375 (A-375, 48 h). Moreover, the “Minimum Inhibitory Concentration (MIC), MRSA-1” value in the test with MRSA-1 is “-”. Besides, in [1], the “Minimum Inhibitory Concentration (MIC), Bc” value was “-”. Further, the “Minimum Inhibitory Concentration (MIC), Ef” value in [2] is “-”. Besides, the “Minimum Inhibitory Concentration (MIC), MRSA-2” value in the test with MRSA-2 is listed as “-”. Moreover, the “Minimum Inhibitory Concentration (MIC), Sa” value in test [3] was “-”.

Take `O=C(N[C@H](CO)[C@H](O)c1ccc([N+](=O)[O-])cc1)C(Cl)Cl` [Chloramphenicol, reference compound]: in the test with MRSA-1 (serial microdilution), the “Minimum bactericidal and fungicidal concentrations (MBC), (MFC), MRSA-1” value is reported as “-”. For the same compound, the MIC in test [1] (Bacillus cereus, ATCC10702, serial microdilution, Mueller-Hinton broth, read-out: Minimum Inhibitory Concentration (MIC), Bc) amounted to 62.5 ± 5.4 µg/mL (≈ 193 µM); in test [2] (Enterococcus faecalis, ATCC29212, serial microdilution, Mueller-Hinton broth, read-out: Minimum Inhibitory Concentration (MIC), Ef), 62.5 ± 5.2 µg/mL (≈ 193 µM); in test [3] (Staphylococcus aureus, serial microdilution, Mueller-Hinton broth, read-out: Minimum Inhibitory Concentration (MIC), Sa), 31.3 ± 2.2 µg/mL (≈ 96.9 µM). Besides, the “Minimum bactericidal and fungicidal concentrations (MBC), (MFC), Bc” value in test [1] (serial microdilution) was “-”. In [2] (serial microdilution), the “Minimum bactericidal and fungicidal concentrations (MBC), (MFC), Ef” value is “-”. For the same compound, the “Minimum bactericidal and fungicidal concentrations (MBC), (MFC), MRSA-2” value in the test with MRSA-2 (serial microdilution) is on record as “-”. For the same compound, in test [3] (serial microdilution), the “Minimum bactericidal and fungicidal concentrations (MBC), (MFC), Sa” value is given as “-”.

Turning to `CC(=O)N1CCN(c2ccc(OCC3COC(Cn4ccnc4)(c4ccc(Cl)cc4Cl)O3)cc2)CC1` (stereo not drawn) [Ketoconazole, reference compound], the “Minimum bactericidal and fungicidal concentrations (MBC), (MFC), MRSA-1” value with MRSA-1 (serial microdilution) is reported as “-”. In addition, the “Minimum Inhibitory Concentration (MIC), MRSA-1” value in the test with MRSA-1 (setting [4]) is “-”. Besides, in test [1] (serial microdilution), the “Minimum bactericidal and fungicidal concentrations (MBC), (MFC), Bc” value was “-”. Moreover, the “Minimum Inhibitory Concentration (MIC), Bc” value in [1] (setting [5]) is given as “-”. Besides, the “Minimum bactericidal and fungicidal concentrations (MBC), (MFC), Ef” value in [2] (serial microdilution) is “-”. In addition, the “Minimum Inhibitory Concentration (MIC), Ef” value in [2] (setting [5]) is reported as “-”. Also, the “Minimum bactericidal and fungicidal concentrations (MBC), (MFC), MRSA-2” value in the test on MRSA-2 (serial microdilution) is “-”. Besides, the “Minimum Inhibitory Concentration (MIC), MRSA-2” value with MRSA-2 (setting [6]) is “-”. The “Minimum bactericidal and fungicidal concentrations (MBC), (MFC), Sa” value in [3] (serial microdilution) is listed as “-”. The “Minimum Inhibitory Concentration (MIC), Sa” value in test [3] (setting [5]) is reported as “-”.

As for `COP(=O)(OC)C(c1cc(C(C)(C)C)c(O)c(C(C)(C)C)c1)c1ccc(Nc2c([N+](=O)[O-])cc([N+](=O)[O-])c3no[n+]([O-])c23)cc1N` (stereo not drawn) [4e, 7-((3-amino-4-((3,5-di-tert-butyl-4-hydroxyphenyl)(dimethoxyphosphoryl)methyl)phenyl)amino)-4,6-dinitrobenzo[c][1,2,5]oxadiazole 1-oxide], the IC50 in the test on WI38 (WI-38, 48 h) was determined as 25.7 ± 2.2 µM; in the test on A549, 48.3 ± 3.7 µM; in the test with PC3 (PC-3, 48 h), 12.3 ± 1.1 µM; in the test on M-HeLa it was 12 ± 1 µM; in the test with MCF-7 (MCF7, 48 h), 21.5 ± 1.8 µM; in the test with HuTu 80, 17.1 ± 1.3 µM. In addition, the concentration for half-maximal inhibition (IC50) is 40.2 ± 3.1 µM with T98G; 14.3 ± 1.3 µM in the test with Chang Liver; 17.4 ± 1.3 µM with PANC-1; 53.1 ± 4.1 µM in the test on A375 (A-375, 48 h).

As to `CCOP(=O)(OCC)C(c1cc(C(C)(C)C)c(O)c(C(C)(C)C)c1)c1ccc(Nc2c([N+](=O)[O-])cc([N+](=O)[O-])c3no[n+]([O-])c23)nc1N` (stereo not drawn) [4b, 7-((6-amino-5-((3,5-di-tert-butyl-4-hydroxyphenyl)(diethoxyphosphoryl)methyl)pyridin-2-yl)amino)-4,6-dinitrobenzo[c][1,2,5]oxadiazole 1-oxide], the IC50 was found to be 5.3 ± 0.4 µM in the test on WI38 (WI-38, 48 h); 9.3 ± 0.8 µM in the test with A549; 11 ± 0.8 µM with PC3 (PC-3, 48 h); 2.9 ± 0.2 µM in the test on M-HeLa; 3.1 ± 0.2 µM with MCF-7 (MCF7, 48 h); 5.4 ± 0.3 µM in the test with HuTu 80. The IC50 in the test on T98G came out at 8.3 ± 0.7 µM; with Chang Liver, 7 ± 1.5 µM; with PANC-1, 5.3 ± 0.4 µM; in the test on A375 (A-375, 48 h) it was 11.4 ± 0.9 µM.

As to `CC(C)OP(=O)(OC(C)C)C(c1cc(C(C)(C)C)c(O)c(C(C)(C)C)c1)c1ccc(N)nc1N` (stereo not drawn) [2c], in the test with MRSA-1 (setting [4]), the “Minimum Inhibitory Concentration (MIC), MRSA-1” value is “-”. Besides, in [1], the “Minimum Inhibitory Concentration (MIC), Bc” value is recorded as “-”. In addition, the “Minimum Inhibitory Concentration (MIC), Ef” value in test [2] is reported as “-”. The “Minimum Inhibitory Concentration (MIC), MRSA-2” value in the test with MRSA-2 (setting [6]) was “-”. In addition, the IC50 in the test with M-HeLa is 38 ± 2.8 µM; with MCF-7 (MCF7, 48 h), 21.8 ± 1.7 µM; in the test with HuTu 80, above 100 µM; in the test with Chang Liver, above 100 µM. Also, the “Minimum Inhibitory Concentration (MIC), Sa” value in test [3] is recorded as “-”.

Consider `COc1cccc2c1C(=O)c1c(O)c3c(c(O)c1C2=O)C[C@@](O)(C(=O)CO)C[C@@H]3O[C@H]1C[C@H](N)[C@H](O)[C@H](C)O1` [DOX, doxorubicin, reference compound], for which the IC50 was 0.4 ± 0.02 µM with WI38 (setting [7]); 0.7 ± 0.05 µM in the test with A549; 2.1 ± 0.2 µM with M-HeLa; 0.4 ± 0.03 µM in the test with MCF-7 (MCF7, cancer cell line, 48 h incubation, MTT); 0.2 ± 0.01 µM in the test with HuTu 80; 2 ± 0.1 µM with T98G. The IC50 in the test on Chang Liver turned out to be 0.5 ± 0.04 µM; in the test on PANC-1, 2.2 ± 0.1 µM; with A375 (setting [8]), 0.3 ± 0.02 µM.

Take `COP(=O)(OC)C(c1cc(C(C)(C)C)c(O)c(C(C)(C)C)c1)c1ccc(N)cc1N` (stereo not drawn) [2e]: the IC50 is 45.3 ± 3.2 µM in the test with M-HeLa; above 100 µM in the test on MCF-7 (MCF7, 48 h); above 100 µM with Chang Liver.

In the case of `CNC(=O)c1cc(Oc2ccc(NC(=O)Nc3ccc(Cl)c(C(F)(F)F)c3)cc2)ccn1` [SF, sorafenib, reference compound], the IC50 in the test on WI38 (setting [7]) worked out at 6.6 ± 0.5 µM; with A549 it was 25.2 ± 2.2 µM; in the test with PC3 (PC-3, cancer cell line, 48 h incubation, MTT), 11.3 ± 0.9 µM; with T98G, 8.6 ± 0.7 µM; with PANC-1, 12 ± 1.1 µM; in the test on A375 (setting [8]), 6.8 ± 0.5 µM.

Consider `CCOP(=O)(OCC)C(c1cc(C(C)(C)C)c(O)c(C(C)(C)C)c1)c1ccc(N)nc1N` (stereo not drawn) [2b], for which the IC50 in the test with M-HeLa is 17.1 ± 1.3 µM; in the test with MCF-7 (MCF7, 48 h), 34.2 ± 3 µM; in the test on HuTu 80, 86.6 ± 6.8 µM; in the test on Chang Liver, above 100 µM.

Regarding `COP(=O)(OC)C(c1cc(C(C)(C)C)c(O)c(C(C)(C)C)c1)c1ccc(N)nc1N` (stereo not drawn) [2a], the “Minimum Inhibitory Concentration (MIC), MRSA-1” value in the test on MRSA-1 (setting [4]) is recorded as “-”. In [1], the “Minimum Inhibitory Concentration (MIC), Bc” value is recorded as “-”. Moreover, the “Minimum Inhibitory Concentration (MIC), Ef” value in test [2] is recorded as “-”. In the test with MRSA-2 (setting [6]), the “Minimum Inhibitory Concentration (MIC), MRSA-2” value is “-”. In addition, the IC50 in the test on M-HeLa is 16.1 ± 1.3 µM; in the test with MCF-7 (MCF7, 48 h), 31 ± 2.6 µM; in the test on HuTu 80, above 100 µM; in the test with Chang Liver, above 100 µM. Besides, in test [3], the “Minimum Inhibitory Concentration (MIC), Sa” value was “-”.

In the case of `CC(C)(C)c1cc(C(c2ccc(N)nc2N)P(=O)(Oc2ccccc2)Oc2ccccc2)cc(C(C)(C)C)c1O` (stereo not drawn) [2d], the “Minimum Inhibitory Concentration (MIC), MRSA-1” value with MRSA-1 is on record as “-”. Also, in [1], the “Minimum Inhibitory Concentration (MIC), Bc” value was “-”. The “Minimum Inhibitory Concentration (MIC), Ef” value in test [2] is given as “-”. In the test on MRSA-2, the “Minimum Inhibitory Concentration (MIC), MRSA-2” value was “-”. For the same compound, the 50% inhibitory concentration (IC50) is 7.4 ± 0.7 µM with M-HeLa; 16 ± 1.2 µM in the test with MCF-7 (MCF7, 48 h); 63.2 ± 5.6 µM in the test on HuTu 80; 52 ± 3.5 µM in the test on Chang Liver. Moreover, the “Minimum Inhibitory Concentration (MIC), Sa” value in [3] is reported as “-”.

Source of the values: paper PMC10145285, “Diverse Biological Activity of Benzofuroxan/Sterically Hindered Phenols Hybrids” (Pharmaceuticals, 2023).
